{"source": "patent US20060135587A1", "about": "“Method and compounds for promoting healing and reducing inflammation” (priority 2002, published 2006)", "key": {"myocardial infarction": {"tested_on": "myocardial infarction", "test": "Clinical trial in subacute myocardial infarction and cardiac insufficiency (Example 23)", "type": "in vivo, human", "method": "A clinical trial of Compound 2 was carried out on 100 patients aged from 25 to 75 years during the subacute period of myocardial infarction. Each patient continued to receive the treatment which s/he had been given prior to commencement of the trial. Compound 2 was administered in addition to the previous treatment. A control group received conventional treatment, ie. nitrate, anticoagulants and/or hypotensive agents as appropriate. The results of treatment of these two groups were compared with groups of patients receiving riboxine and placebo. Compound 2 was administered over a period of three weeks from the 7th to 28th days following infarction, and was administered orally at a dose of three 0.2 g tablets per day.\nThe effects of treatment were monitored by 12-lead electrocardiography, using the QRS Scoring System. Haemodynamic parameters and the contractile function of the myocardium were monitored using a Toshiba ultrasound camera model SSH-60A, using conventional methods.\nThe effect of Compound 2 was also studied in 25 patients aged 43 to 66 years suffering from cardiac insufficiency, in comparison with riboxine or a placebo."}, "[1]": {"tested_on": "cryogenic ulcer of the gastric mucosa", "test": "Cryogenic gastric ulcer in rats", "type": "in vivo", "settings": "for reduction of the size of lesions in the gastric mucosa: day 14", "method": "The models used gastric ulcers induced by\nc) Ulcer created by local wounding with a cryogenic probe using a method similar to that described above for mouth ulcers.\nThe compounds were administered intraperitoneally at a dose of 20 mg/kg; in the cryogenic ulcer model compound 2 was administered either intraperitoneally (10 mg/kg) or orally (20 mg/kg twice daily, ie. a total of 40 mg/kg/day) and was compared to orally-administered gastrocepin (1 mg/kg twice daily, ie. a total of 2 mg/kg/day)."}, "[2]": {"tested_on": "aseptic full-thickness skin wounds", "test": "Healing of aseptic full-thickness skin wounds in rats, topical treatment", "type": "in vivo", "excerpt": "To heal successfully, wounds should be treated with regard to specific features of the various stages of healing process of the wound (Kuzin et al, 1981). The wound-healing effect of salts of N-substituted 1,3-dialkyl-4,5-bis(carbamoyl)imidazolium derivatives was studied in a model of aseptic full-thickness skin wounds in rats (Zapadnyuk et al, 1983). The effect of 10% 1-ethyl-3-methyl-4,5-bis(N-methylcarbamoyl)imidazolium benzensulfonate in a lanolin ointment base was compared to that of Solcoseryl gel and Spasatel balm.\nAseptic full-thickness skin wounds were created in rats under light ether anaesthesia. At a site on the animal's back where the animal could not lick the wound, the skin was shaved, and a circular piece of skin approximately 2.5 cm^2 area was excised with scissors. Following recovery from anaesthesia the animals were kept in separate cages, with normal food and water ad libitum. A total of 100 rats weighing from 200 to 250 g were used, with 20 rats in each group. The groups were as follows:\nTreatment was performed 24 hours after the wounding by applying […] once a day in a proportion of 80 mg of ointment per 1 cm^2 of the wound area (8 mg of substance per 1 cm^2) and then daily until healing was complete.\nAnimals were examined at 5, 10, 15 and 20 days for the following parameters; wound size and wound healing time; weight gain, peripheral blood indicators (total leucocyte count, differential leucocyte count, and erythrocyte sedimentation rate); and biochemical serum indicators (total protein, albumin, globulin, and globulin fractions); and macroscopic and microscopic assessment of wounds. The average complete wound healing period was 16.8±1.9 days for Compound 2, compared to 23.5±2.2 days for Spasatel and 24.0±2.4 days for Solcoseryl.\nFor measurement of wound size, a sterile object plate was laid over the wound, and its contour was outlined with a marker. The wounds were photographed, the wound outlines were scanned, and their area was calculated using an in-house computer program."}, "[3]": {"tested_on": "liver after partial hepatectomy", "test": "Morphological study of the liver after partial hepatectomy", "type": "in vivo, rats", "settings": "one week after hepatectomy", "method": "Morphological methods are highly informative in the assessment of repair processes. Histological tests of the liver after partial hepatectomy were performed using generally accepted methods. Microscopic sections were stained with hematoxylin and eosin using Van Gieson's methodology. Liver tests after partial hepatectomy were performed on 8 groups of animals, totalling 37 rats. All animals were examined one week after hepatectomy."}, "[4]": {"tested_on": "bradykinin-induced inflammation", "test": "Bradykinin-induced acute inflammation in rats", "type": "in vivo", "method": "Acute inflammation was induced by sub-plantar injection of 0.1 ml of 0.01% of bradykinin in saline solution into the left paws of male rats weighing 180-200 g. The acuteness of the inflammation was assessed 30 minutes after injection of bradykinin by the change in the paw volume. The anti-inflammatory effect, assessed by the reduction of swelling, was expressed as a percentage of the initial paw […] compared to controls. The test substances were administered orally via an intra-gastric tube for three days and at one hour before administration of bradykinin. […] These were administered orally to rats for 3 days and at one hour before the injection of the agent. There were 12 rats in each group."}, "[5]": {"settings": "healing effect over the course of 14 days, twice daily, oral"}}, "note": "Where two headings read alike, the source gives them in different places. Marks after values point to notes of the source that are not given here.", "data": [{"smiles": "CC[n+]1cn(C)c(C(=O)NC)c1C(=O)NC.O=S(=O)([O-])c1ccccc1", "note": "[Compound 2, 1-methyl-3-ethyl-4,5-bis(N-methylcarbamoyl)-imidazolium benzenesulfonate]", "values": [{"measurement": "side effects", "setting": "myocardial infarction; both patient groups", "value": "No side effects were observed in either group"}, {"measurement": "recovery of the contractile function of the myocardium versus placebo or riboxine", "setting": "myocardial infarction; myocardial infarction patients, three 0.2 g tablets per day orally, 7th to 28th day", "value": "recovery of the contractile function of the myocardium was more rapid"}, {"measurement": "progression of cardiac insufficiency", "setting": "myocardial infarction; patients suffering from cardiac insufficiency", "value": "prevented the progression of the condition"}, {"measurement": "LD50", "setting": "white male mice; intraperitoneal injection, white male mice, 14 days observation", "value": 764, "unit": "mg/kg"}, {"measurement": "LD50", "setting": "white male mice; mice, given intraperitoneally, text b404", "value": 1920, "unit": "mg/kg"}, {"measurement": "reduction of the size of lesions in the gastric mucosa", "setting": "[1]; 10 mg/kg intraperitoneally", "value": 53, "unit": "%"}, {"measurement": "reduction of the size of lesions in the gastric mucosa", "setting": "[1]; daily dose of 40 mg/kg orally", "value": 51, "unit": "%"}, {"measurement": "% reduction of degree of ulceration", "setting": "[1]; [5]", "value": 62, "unit": "%"}, {"measurement": "Average number of lesions per animal", "setting": "[1]; [5]", "value": "9.4 ± 1.0"}, {"measurement": "Wound area (% of area before treatment)", "setting": "[2]; 5th day, topical, test compound as 10% ointment", "value": 84.0, "unit": "%"}, {"measurement": "wound area on the fifteenth day", "setting": "[2]; 10% Compound 2 ointment", "value": 0.4, "unit": "%"}, {"measurement": "Wound area (% of area before treatment)", "setting": "[2]; 10th day, topical, test compound as 10% ointment", "value": 8.1, "unit": "%"}, {"measurement": "Wound area (% of area before treatment)", "setting": "[2]; 15th day, topical, test compound as 10% ointment", "value": 0.4, "unit": "%"}, {"measurement": "Wound area (% of area before treatment)", "setting": "[2]; 20th day, topical, test compound as 10% ointment", "value": 0.1, "unit": "%"}, {"measurement": "Epithelialization (duration in days)", "setting": "[2]; Table 8, topical once a day, Compound 2 as 10% ointment in lanolin", "value": "16.8 ± 1.9*^.** days"}, {"measurement": "Epithelialization period", "setting": "[2]; Table 10, topical, test compound as 10% ointment", "value": "16.8 ± 1.9"}, {"measurement": "average complete wound healing period", "setting": "[2]; text b167", "value": "16.8 ± 1.9", "unit": "days"}, {"measurement": "histological findings in the liver", "setting": "[3]; 0.1 MM/kg", "value": "showed no undesirable effects"}, {"measurement": "histological findings in the liver", "setting": "[3]; 0.2 MM/kg", "value": "some of the animals demonstrated hepatocyte hypertrophy combined with subacute hepatitis"}, {"measurement": "Increase in paw volume", "setting": "[4]; 20 mg/kg orally", "value": 0.41, "unit": "mL"}, {"measurement": "Paw volume 30 minutes after administration of bradykinin", "setting": "[4]; 20 mg/kg orally", "value": "1.80 ± 0.060", "unit": "mL"}, {"measurement": "Paw volume initial", "setting": "[4]; 20 mg/kg orally", "value": "1.39 ± 0.040", "unit": "mL"}, {"measurement": "Swelling inhibition (%)", "setting": "[4]; 20 mg/kg orally", "value": 40.58, "unit": "%"}, {"measurement": "Increase in paw volume", "setting": "[4]; 50 mg/kg orally", "value": 0.34, "unit": "mL"}, {"measurement": "Paw volume 30 minutes after administration of bradykinin", "setting": "[4]; 50 mg/kg orally", "value": "1.69 ± 0.060", "unit": "mL"}, {"measurement": "Paw volume initial", "setting": "[4]; 50 mg/kg orally", "value": "1.35 ± 0.038", "unit": "mL"}, {"measurement": "Swelling inhibition (%)", "setting": "[4]; 50 mg/kg orally", "value": 50.72, "unit": "%"}]}]}
